Assay results published in patent publication US20220119354A1, “DIAMINO-SUBSTITUTED PYRIDINES AND PYRIMIDINES AS HERBICIDES” (FMC Corporation, priority 2019, published 2022).

What was measured:
Format in all cases: in vivo
[1] = tested on: barnyardgrass (Echinochloa crus-galli); experiment: Test A preemergence, barnyardgrass; conditions: 0 to 100 scale, 0 is no effect, 100 is complete control
Procedure, shortened: (§1)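 Visual injury scores (0 no effect to 100 complete control) were assigned about 10 d after treatment by comparison with untreated controls. Test chemicals, formulated in a surfactant-containing non-phytotoxic solvent, were applied to soil at planting or to plants at the one- to two-leaf stage.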

kochia (Kochia scoparia) [2] = experiment: Test A preemergence, kochia; conditions: 0 to 100 scale, 0 is no effect, 100 is complete control
Procedure, shortened: as §1

[3] = tested on: ragweed (common ragweed, Ambrosia elatior); experiment: Test A preemergence, ragweed; conditions: 0 to 100 scale, 0 is no effect, 100 is complete control
Procedure, shortened: as §1

[4] = tested on: ryegrass, Italian (Lolium multiflorum); experiment: Test A preemergence, Italian ryegrass; conditions: 0 to 100 scale, 0 is no effect, 100 is complete control
Procedure, shortened: as §1

[5] = tested on: foxtail, giant (Setaria faberii); experiment: Test A preemergence, giant foxtail; conditions: 0 to 100 scale, 0 is no effect, 100 is complete control
Procedure, shortened: as §1

[6] = tested on: pigweed (Amaranthus retroflexus); experiment: Test A preemergence, pigweed; conditions: 0 to 100 scale, 0 is no effect, 100 is complete control
Procedure, shortened: as §1

[7] = tested on: barnyardgrass (Echinochloa crus-galli); experiment: Test A postemergence, barnyardgrass; conditions: 0 to 100 scale, 0 no effect, 100 complete control
Procedure, shortened: as §1

kochia (Kochia scoparia) [8] = experiment: Test A postemergence, kochia; conditions: 0 to 100 scale, 0 no effect, 100 complete control
Procedure, shortened: as §1

[9] = tested on: ragweed (common ragweed, Ambrosia elatior); experiment: Test A postemergence, ragweed; conditions: 0 to 100 scale, 0 no effect, 100 complete control
Procedure, shortened: as §1

[10] = tested on: ryegrass, Italian (Lolium multiflorum); experiment: Test A postemergence, Italian ryegrass; conditions: 0 to 100 scale, 0 no effect, 100 complete control
Procedure, shortened: as §1

[11] = tested on: foxtail, giant (Setaria faberii); experiment: Test A postemergence, giant foxtail; conditions: 0 to 100 scale, 0 no effect, 100 complete control
Procedure, shortened: as §1

[12] = tested on: pigweed (Amaranthus retroflexus); experiment: Test A postemergence, pigweed; conditions: 0 to 100 scale, 0 no effect, 100 complete control
Procedure, shortened: as §1

[13] = tested on: wheat (Triticum aestivum); experiment: Test A postemergence, wheat; conditions: 0 to 100 scale, 0 no effect, 100 complete control
Procedure, shortened: as §1

corn (Zea mays) = experiment: Test A postemergence, corn; conditions: 0 to 100 scale, 0 no effect, 100 complete control
Procedure, shortened: as §1

[14] = tested on: blackgrass (Alopecurus myosuroides); experiment: Test A postemergence, blackgrass; conditions: 0 to 100 scale, 0 no effect, 100 complete control
Procedure, shortened: as §1

[15] = tested on: galium (catchweed bedstraw, Galium aparine); experiment: Test A postemergence, galium; conditions: 0 to 100 scale, 0 no effect, 100 complete control
Procedure, shortened: as §1

rice (Oryza sativa) = experiment: Test B flooded paddy test, rice; conditions: Flood, 250 g ai/ha, applied to paddy water, 2-leaf stage, visual evaluation after 13 to 15 d
Procedure, shortened: (§2)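 Application was made into paddy water of pots flooded 3 cm deep at treatment, with seedlings at the 2-leaf stage. That flood level was kept throughout, and plants stayed under glass 13 to 15 d before visual assessment on a 0–100 control scale.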

[16] = tested on: sedge, umbrella (small-flower umbrella sedge, Cyperus difformis); experiment: Test B flooded paddy test, umbrella sedge; conditions: Flood, 250 g ai/ha, applied to paddy water, 2-leaf stage, visual evaluation after 13 to 15 d
Procedure, shortened: as §2

[17] = tested on: ducksalad (Heteranthera limosa); experiment: Test B flooded paddy test, ducksalad; conditions: Flood, 250 g ai/ha, applied to paddy water, 2-leaf stage, visual evaluation after 13 to 15 d
Procedure, shortened: as §2

[18] = tested on: barnyardgrass (Echinochloa crus-galli); experiment: Test B flooded paddy test, barnyardgrass; conditions: Flood, 250 g ai/ha, applied to paddy water, 2-leaf stage, visual evaluation after 13 to 15 d
Procedure, shortened: as §2

Compound	Barnyardgrass plant response rating ([1]; 125 g ai/ha)	Barnyardgrass plant response rating ([1]; 500 g ai/ha)	Kochia plant response rating (kochia (Kochia scoparia) [2]; 125 g ai/ha)	Kochia plant response rating (kochia (Kochia scoparia) [2]; 500 g ai/ha)	Ragweed plant response rating ([3]; 125 g ai/ha)	Ragweed plant response rating ([3]; 500 g ai/ha)	Ryegrass, Italian plant response rating ([4]; 125 g ai/ha)	Ryegrass, Italian plant response rating ([4]; 500 g ai/ha)	Foxtail, Giant plant response rating ([5]; 125 g ai/ha)	Foxtail, Giant plant response rating ([5]; 500 g ai/ha)	Pigweed plant response rating ([6]; 125 g ai/ha)	Pigweed plant response rating ([6]; 500 g ai/ha)	Plant response rating, Barnyardgrass ([7]; 125 g ai/ha)	Plant response rating, Barnyardgrass ([7]; 500 g ai/ha)	Plant response rating, Kochia (kochia (Kochia scoparia) [8]; 125 g ai/ha)	Plant response rating, Kochia (kochia (Kochia scoparia) [8]; 500 g ai/ha)	Plant response rating, Ragweed ([9]; 125 g ai/ha)	Plant response rating, Ragweed ([9]; 500 g ai/ha)	Plant response rating, Ryegrass, Italian ([10]; 125 g ai/ha)	Plant response rating, Ryegrass, Italian ([10]; 500 g ai/ha)	further results
C[C@@H](Nc1nc(N)c(C(F)(F)F)c(C(F)(F)F)n1)C1Cc2ccccc2C1 [Compound 67]	0	0	0	90	0	0	0	0	0	0	30	90	0	0	50	70	0	0	0	0	Plant response rating, Foxtail, Giant ([11]; 125 g ai/ha): 0; Plant response rating, Foxtail, Giant ([11]; 500 g ai/ha): 0; Plant response rating, Pigweed ([12]; 125 g ai/ha): 20; Plant response rating, Pigweed ([12]; 500 g ai/ha): 60; Plant response rating, Wheat ([13]; 125 g ai/ha): 0; Plant response rating, Wheat ([13]; 500 g ai/ha): 0; Plant response rating, Corn (corn (Zea mays); 125 g ai/ha): 0; Plant response rating, Corn (corn (Zea mays); 500 g ai/ha): 0; Plant response rating, Blackgrass ([14]; 125 g ai/ha): 0; Plant response rating, Blackgrass ([14]; 500 g ai/ha): 0; Plant response rating, Galium ([15]; 125 g ai/ha): 20; Plant response rating, Galium ([15]; 500 g ai/ha): 40; Plant response rating, Rice (0 to 100 scale, 0 is no effect, 100 is complete control) (rice (Oryza sativa)): 0; Plant response rating, Sedge, Umbrella (0 to 100 scale, 0 is no effect, 100 is complete control) [16]: 0; Plant response rating, Ducksalad (0 to 100 scale, 0 is no effect, 100 is complete control) [17]: 0; Plant response rating, Barnyardgrass (0 to 100 scale, 0 is no effect, 100 is complete control) [18]: 0
C[C@H](Nc1nc(N)c(C(F)(F)F)c(C(F)(F)F)n1)C1Cc2ccccc2C1 [Compound 68]	0	0	0	0	0	0	0	0	0	0	0	0	0	0	20	40	40	50	0	0	Plant response rating, Foxtail, Giant ([11]; 125 g ai/ha): 0; Plant response rating, Foxtail, Giant ([11]; 500 g ai/ha): 0; Plant response rating, Pigweed ([12]; 125 g ai/ha): 0; Plant response rating, Pigweed ([12]; 500 g ai/ha): 0; Plant response rating, Wheat ([13]; 125 g ai/ha): 0; Plant response rating, Wheat ([13]; 500 g ai/ha): 0; Plant response rating, Corn (corn (Zea mays); 125 g ai/ha): 20; Plant response rating, Corn (corn (Zea mays); 500 g ai/ha): 0; Plant response rating, Blackgrass ([14]; 125 g ai/ha): 0; Plant response rating, Blackgrass ([14]; 500 g ai/ha): 0; Plant response rating, Galium ([15]; 125 g ai/ha): 0; Plant response rating, Galium ([15]; 500 g ai/ha): 0; Plant response rating, Rice (0 to 100 scale, 0 is no effect, 100 is complete control) (rice (Oryza sativa)): 0; Plant response rating, Sedge, Umbrella (0 to 100 scale, 0 is no effect, 100 is complete control) [16]: 0; Plant response rating, Ducksalad (0 to 100 scale, 0 is no effect, 100 is complete control) [17]: 0; Plant response rating, Barnyardgrass (0 to 100 scale, 0 is no effect, 100 is complete control) [18]: 0
C[C@H](Nc1ncc(C(F)(F)F)c(N)n1)c1cc2cccc(F)c2o1 [Compound 72]	0	0	0	0	0	0	0	0	0	0	0	80	0	0	0	30	0	30	0	0	Plant response rating, Foxtail, Giant ([11]; 125 g ai/ha): 0; Plant response rating, Foxtail, Giant ([11]; 500 g ai/ha): 0; Plant response rating, Pigweed ([12]; 125 g ai/ha): 40; Plant response rating, Pigweed ([12]; 500 g ai/ha): 50; Plant response rating, Wheat ([13]; 125 g ai/ha): 0; Plant response rating, Wheat ([13]; 500 g ai/ha): 0; Plant response rating, Corn (corn (Zea mays); 125 g ai/ha): 0; Plant response rating, Corn (corn (Zea mays); 500 g ai/ha): 0; Plant response rating, Blackgrass ([14]; 125 g ai/ha): 0; Plant response rating, Blackgrass ([14]; 500 g ai/ha): 0; Plant response rating, Galium ([15]; 125 g ai/ha): 0; Plant response rating, Galium ([15]; 500 g ai/ha): 40; Plant response rating, Rice (0 to 100 scale, 0 is no effect, 100 is complete control) (rice (Oryza sativa)): 0; Plant response rating, Sedge, Umbrella (0 to 100 scale, 0 is no effect, 100 is complete control) [16]: 0; Plant response rating, Ducksalad (0 to 100 scale, 0 is no effect, 100 is complete control) [17]: 0; Plant response rating, Barnyardgrass (0 to 100 scale, 0 is no effect, 100 is complete control) [18]: 0
